We go through three compounds from patent publication EP4813979A1, “COMPOUND FOR EGFR PROTEIN DEGRADATION AND USE THEREOF” (TYK Medicines, Inc., priority 2023, dated 2025).

Like-named read-outs stand apart in the source and are kept apart here.

The target in series [1] is EGFR in Baf3-L858R-T790M-C797S (Homo sapiens, UniProt P00533, C797S/L858R/T790M). Put plainly: EGFR PROTAC HTRF experiment (total EGFR degradation). Type of series: cell-based. The method, then:
(§1) [table] Among them, B[…] -C797S (abbreviated as Baf3-DTC) is a stable Ba/F3 clone expressing exogenous EGFR gene bearing T790M, C797S and […] triple amino acid mutations, purchased from KYinno; Baf3-L858R-T790M - C797S (abbreviated as Baf3-LTC) is a stable Ba/F3 clone expressing exogenous EGFR gene bearing […], T790M, C797S triple mutations, purchased from KYinno. [table] [table] Dilutded Eu and d2 antibodies 2μl per well with detection buffer 20-fold. Then mixed the two antibody vials thoroughly. [table] Opened EnVision , locate the HTRF program, configured the board, and then read […]. The fitted curve, DC50 and Dmax of this compound could be generated using GraphPad Prism .

Series [2] has as its target EGFR in Baf3-19del-T790M-C797S (Homo sapiens, UniProt P00533, C797S/DEL746-750/T790M). Described as above. Format: cell-based. The method, then: as §1
The subject of the next series is H1975. Description: Cell anti-proliferation experiment (CTG). Format: cell-based. Particulars: Homo sapiens, H1975 (EGFR T790M/L858R), class symbol. Summed up:
(§2)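 Cells were seeded at 1500–2500/well and dosed after ~24 h with compound in a 1:4 dilution series up to 10,000 nM, in triplicate. Viability was read by CTG luminescence after 72 h, normalized to the 0.1% DMSO control and medium blank, and IC50 was obtained by curve fitting.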

For the next series, the system named is A549. Description: Cell anti-proliferation experiment (CTG). Format: cell-based. Particulars: Homo sapiens, A549 (wild-type EGFR), class symbol. Summed up:
as §2

The test system of another series is A431. Description: Cell anti-proliferation experiment (CTG). Type of series: cell-based. Particulars: Homo sapiens, A431 (wild-type EGFR), class symbol. In outline: as §2
Another series relates to PC-9. Put plainly: Cell anti-proliferation experiment (CTG). Particulars: Homo sapiens, PC-9 (EGFR exon 19 deletion), class symbol. Type of series: cell-based. In outline:
as §2

A further series deals with HCC827. Description: Cell anti-proliferation experiment (CTG). Type of series: cell-based. Particulars: Homo sapiens, HCC827 (exon 19 deletion), class symbol. Summed up: as §2
Series [3] is described as follows: Pharmacokinetic test of CD-1 mice. Also on record: AUC(0-t) / AUC(0-inf): concentration or dose not given beside the values. Type of series: in vivo. Particulars: male CD-1 mice, single oral gavage (PO), plasma; for AUC(0-inf) / AUC(0-t) / Cmax / MRT last / Tmax: mouse. As for the experimental part: Plasma was collected from male CD-1 mice after a single gavage administration of the test substance. The plasma was then analyzed to calculate pharmacokinetic parameters.
The solvent is 5% DMSO + 10% Solutol HS-15 + 85% Saline.
Formulation preparation process: Accurately weighed the compound powder, added appropriate volumes of DMSO, Solutol and physiological saline in sequence, and vortexed sonicate at each step to finally form a homogeneous formulation solution.
Experimental animals were housed in the SPF-grade animal facility of Suzhou Xihua New Drug Development Co., Ltd. (License No.: SYXK(Su)2021-0019). Animals were fed normally for at least 3 days after purchase before the experiment, and each mouse was marked with a tail tag. Animals in the oral administration group were fasted overnight the day before administration, and were resumed feeding 4 hours later, with free access to water. Table 4. Sources and Number of Experimental Animals […]
Before administration, checked the state of the administration formulation and ensured its homogeneity by vortexing, stirring or shaking. Calculated the theoretical administration volume for each CD-1 mouse in each group according to the following formula. Theoretical administration volume (mL); = (Dose (mg⋅kg^−1))/(formulation concentration (mg⋅mL^−1)) × animal body weight (kg) [formula]
Table 5 Sample Collection Information
The collected blood was placed in test tubes containing the anticoagulant EDTA-K2 (15 % EDTA-K2 solution), stored on moist ice, and centrifuged within 45 min (1,500 g, 2-8 °C, 10 min). Plasma was then collected. The plasma was stored in pre-chilled centrifuge tubes, flash-frozen on dry ice, and subsequently stored in an ultra-low temperature freezer at -60 °C or lower until shipment.
A quantitative detection method for the analyte was established using Shimadzu liquid chromatography and Triple Quad™ 6500+AB mass spectrometry. The concentration of the parent drug in plasma was analyzed. The analytical results were controlled for variation using quality control samples, with the accuracy of the quality control samples expected to be between 80% and 120%.
The main pharmacokinetic parameters were calculated using a non-compartmental model in Winnonlin Phoenix software. These parameters included the area under the curve (AUC(0-t) and AUC(0-∞)), elimination half-life (T1/2), maximum plasma concentration (Cmax ), and time to reach maximum plasma concentration (Tmax).

The subject of series [4] is Baf3-L858R-T790M - C797S (Baf3-LTC). Put plainly: Cell anti-proliferation experiment (CTG). Format: cell-based. To be noted: 72 h, class symbol. Summed up: as §2
For series [5], the system named is Baf3-19del- T790M -C797S (Baf3-DTC). Put plainly: Cell anti-proliferation experiment (CTG). Type of series: cell-based. To be noted: 72 h, class symbol. Summed up: as §2

For orientation: DC50 means the concentration giving 50% degradation. Broadly, the Dmax is the largest share of the target that was removed. By IC50 is commonly meant the concentration that gives 50% inhibition. In general, AUC(0-inf) refers to the area under the concentration-time curve extrapolated to infinity. As usually defined, the AUC(0-t) is exposure summed from dosing to a finite time, without extrapolation to infinity. By Cmax is commonly meant the peak of the concentration-time curve. The term MRT last denotes the average time that molecules of a dose stay in the body. For orientation: Tmax means the time at which the peak concentration occurs.

Sequence of EGFR in Baf3-L858R-T790M-C797S (P00533 25-1210 T790M/C797S/L858R): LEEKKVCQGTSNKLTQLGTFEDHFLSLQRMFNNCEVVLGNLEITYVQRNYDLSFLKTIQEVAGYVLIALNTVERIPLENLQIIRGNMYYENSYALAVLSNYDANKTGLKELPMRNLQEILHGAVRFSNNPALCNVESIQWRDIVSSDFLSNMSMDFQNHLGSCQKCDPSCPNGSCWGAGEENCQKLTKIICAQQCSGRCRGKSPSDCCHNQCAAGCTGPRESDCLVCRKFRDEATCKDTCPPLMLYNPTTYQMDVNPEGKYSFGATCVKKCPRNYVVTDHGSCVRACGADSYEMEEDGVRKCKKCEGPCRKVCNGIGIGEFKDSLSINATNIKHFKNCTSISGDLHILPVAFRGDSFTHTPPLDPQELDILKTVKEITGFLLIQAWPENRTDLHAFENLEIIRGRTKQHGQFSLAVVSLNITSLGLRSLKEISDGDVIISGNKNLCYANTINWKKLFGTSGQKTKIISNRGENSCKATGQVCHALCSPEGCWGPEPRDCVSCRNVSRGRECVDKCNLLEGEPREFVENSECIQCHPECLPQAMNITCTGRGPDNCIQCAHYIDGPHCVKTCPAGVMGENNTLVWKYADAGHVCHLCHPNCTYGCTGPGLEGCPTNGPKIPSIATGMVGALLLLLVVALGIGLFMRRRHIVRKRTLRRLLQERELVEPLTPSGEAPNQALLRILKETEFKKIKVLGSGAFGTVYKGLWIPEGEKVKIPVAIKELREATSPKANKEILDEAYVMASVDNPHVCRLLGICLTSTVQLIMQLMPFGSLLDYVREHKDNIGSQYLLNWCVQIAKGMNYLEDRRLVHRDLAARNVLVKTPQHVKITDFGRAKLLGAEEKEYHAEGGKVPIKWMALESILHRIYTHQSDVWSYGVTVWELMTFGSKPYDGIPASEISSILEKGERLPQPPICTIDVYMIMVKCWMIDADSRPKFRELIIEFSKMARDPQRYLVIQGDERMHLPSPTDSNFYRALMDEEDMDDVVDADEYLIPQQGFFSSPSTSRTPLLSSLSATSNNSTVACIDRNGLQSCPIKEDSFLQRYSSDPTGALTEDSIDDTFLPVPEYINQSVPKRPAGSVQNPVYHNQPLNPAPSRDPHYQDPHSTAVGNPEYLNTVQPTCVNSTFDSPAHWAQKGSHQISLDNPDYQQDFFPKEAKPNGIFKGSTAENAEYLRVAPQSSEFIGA
Sequence of EGFR in Baf3-19del-T790M-C797S (P00533 with tags, fused parts or gaps DEL746-750/T790M/C797S): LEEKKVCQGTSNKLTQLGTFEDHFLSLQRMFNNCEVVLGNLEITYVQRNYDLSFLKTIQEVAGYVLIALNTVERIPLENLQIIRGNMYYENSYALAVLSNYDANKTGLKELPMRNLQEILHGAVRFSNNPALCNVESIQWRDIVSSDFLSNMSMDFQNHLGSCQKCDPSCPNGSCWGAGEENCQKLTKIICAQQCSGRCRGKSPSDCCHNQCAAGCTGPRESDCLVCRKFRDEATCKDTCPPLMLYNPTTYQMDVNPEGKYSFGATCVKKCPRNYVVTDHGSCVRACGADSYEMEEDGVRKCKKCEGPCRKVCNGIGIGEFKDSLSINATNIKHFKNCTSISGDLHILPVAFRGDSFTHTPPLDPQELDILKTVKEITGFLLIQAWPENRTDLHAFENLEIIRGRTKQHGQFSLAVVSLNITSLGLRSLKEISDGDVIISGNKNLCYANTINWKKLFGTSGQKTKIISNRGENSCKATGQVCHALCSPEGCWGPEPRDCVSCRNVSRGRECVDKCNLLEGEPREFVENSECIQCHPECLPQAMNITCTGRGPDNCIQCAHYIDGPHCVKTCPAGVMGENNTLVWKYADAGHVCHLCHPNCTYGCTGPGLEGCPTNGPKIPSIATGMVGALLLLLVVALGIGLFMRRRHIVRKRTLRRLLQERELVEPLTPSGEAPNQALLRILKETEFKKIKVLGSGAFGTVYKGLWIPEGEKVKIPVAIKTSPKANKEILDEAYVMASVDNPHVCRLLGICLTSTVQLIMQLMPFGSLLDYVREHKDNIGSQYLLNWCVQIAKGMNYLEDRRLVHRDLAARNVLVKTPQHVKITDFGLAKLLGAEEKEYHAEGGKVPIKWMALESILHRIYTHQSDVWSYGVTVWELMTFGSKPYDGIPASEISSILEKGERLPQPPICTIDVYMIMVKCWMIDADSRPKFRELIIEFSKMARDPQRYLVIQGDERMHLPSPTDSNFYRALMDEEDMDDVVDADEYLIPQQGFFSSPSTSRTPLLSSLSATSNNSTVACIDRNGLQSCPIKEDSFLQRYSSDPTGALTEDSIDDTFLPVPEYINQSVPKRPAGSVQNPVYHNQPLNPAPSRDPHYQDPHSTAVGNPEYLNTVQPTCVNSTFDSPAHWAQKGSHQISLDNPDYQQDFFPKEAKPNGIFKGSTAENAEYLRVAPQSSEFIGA

Turning to `CCc1cc(Nc2ncc(Cl)c(Nc3ccccc3C(=O)NC)n2)c(OC)cc1N1CCN(C(=O)CN2CCC(c3ccc4c(N5CCC(=O)NC5=O)nn(C)c4c3)C(F)(F)C2)CC1` (centres unmarked) [Comparative Example 1-1, reference compound], the DC50 lay in the range of 10 to 100 nM in series [1] (read-out: Baf3-LTC DC50; Baf3-LTC, incubated 16 hours, HTRF total EGFR) and 10 to 100 nM in series [2] (read-out: Baf3-DTC DC50; Baf3-DTC, incubated 16 hours, HTRF total EGFR). Moreover, the Dmax in series [1] (read-out: Baf3-LTC Dmax) and in series [2] (read-out: Baf3-DTC Dmax) was 70 to 100% throughout. In addition, the half-inhibitory concentration (IC50) was 10 to 100 nM with H1975 (NCI-H1975, 72 hours); 10 to 100 nM in the series on A549 (72 hours); 100 to 1000 nM with A431 (A-431, 72 hours); 100 to 1000 nM in the series on PC-9 (72 hours); 100 to 1000 nM in the series on HCC827 (72 hours). The same compound gave an HL_ in [3] of 2.41 h. In series [3], the area under the curve AUC(0-inf) amounted to 14300 ng·h/mL. Besides, the AUC(0-t) in series [3] stood at 14300 ng·h/mL. In addition, in series [3], the highest level (Cmax) was 1740 ng/mL. In series [3], the MRT last is 6.06 h. Also, the Tmax in series [3] came to 2 h.
Consider `CCc1cc(Nc2ncc(Br)c(Nc3ccccc3C(=O)NC)n2)c(OC)cc1N1CCN(C(=O)CN2CCC(c3cc4c(cc3F)c(N3CCC(=O)NC3=O)nn4C)C(F)(F)C2)CC1` (centres unmarked) [TA-004], for which the DC50 in series [1] (Baf3-LTC, incubated 16 hours, HTRF total EGFR; read-out: Baf3-LTC DC50) fell in the range of 100 to 1000 nM; in series [2] (Baf3-DTC, incubated 16 hours, HTRF total EGFR; read-out: Baf3-DTC DC50), 100 to 1000 nM. The Dmax in series [1] (Baf3-LTC, incubated 16 hours, HTRF total EGFR; read-out: Baf3-LTC Dmax) was in the range of 70 to 100%; in series [2] (Baf3-DTC, incubated 16 hours, HTRF total EGFR; read-out: Baf3-DTC Dmax), 70 to 100%. In addition, the IC50 with H1975 (NCI-H1975, 72 h) was 10 to 100 nM; with A549 (A549, 72 h), more than 1000 nM; in the series on A431 (A-431, 72 h), more than 1000 nM; in series [4], 10 to 100 nM; in the series on PC-9 (PC-9, 72 h) it was more than 1000 nM; with HCC827 (HCC827, 72 h), more than 1000 nM. The IC50 in [5] was in the range of 10 to 100 nM. The same compound displayed an HL_ in series [3] of 2.67 h. The same compound registered an AUC(0-inf) in [3] of 28800 ng·h/mL. In addition, the area under the curve AUC(0-t) in [3] was 28800 ng·h/mL. Besides, the Cmax in series [3] worked out at 3170 ng/mL. For the same compound, in [3], the MRT last was 6.01 h. Besides, the Tmax in series [3] is 2 h.
Take `CCc1cc(Nc2ncc(Cl)c(Nc3ccccc3P(C)(C)=O)n2)c(OC)cc1N1CCN(C(=O)CN2CCC(c3cc4c(cc3F)c(N3CCC(=O)NC3=O)nn4C)C(F)(F)C2)CC1` (centres unmarked) [TA-005]: in series [3], the HL_ is reported as 2.28 h, the AUC(0-inf) was found to be 36300 ng·h/mL, the AUC(0-t) turned out to be 36300 ng·h/mL and the Cmax was 5970 ng/mL. In [3], the MRT last amounted to 4.59 h and the Tmax amounted to 1 h.
